The source of these data is PMC11528023, “Transport mechanism and structural pharmacology of human urate transporter URAT1” (Cell Research, 2024).

Substitutions are numbered along the chain they refer to.

The target of assay [1] is human URAT1 tagged with MBP and DARPin, with part of the intracellular loop (residues 280-343) replaced by OAT4 residues 277-339 (human) (UniProt Q96S37). Nature of the assay: cryo-EM particle images; purified protein at the high concentration used to prepare cryo-EM grids; particles seen on the grids (Supplementary Fig. S1b).
Assay [2] has as its target T1, URAT1WT (Homo sapiens, UniProt Q96S37).
T1 construct: expressed in transfected cells; host or cells: HEK293 cells (ATCC, CRL-3216), transient transfection with Lipofectamine 3000
T1 sequence (Q96S37 1-553): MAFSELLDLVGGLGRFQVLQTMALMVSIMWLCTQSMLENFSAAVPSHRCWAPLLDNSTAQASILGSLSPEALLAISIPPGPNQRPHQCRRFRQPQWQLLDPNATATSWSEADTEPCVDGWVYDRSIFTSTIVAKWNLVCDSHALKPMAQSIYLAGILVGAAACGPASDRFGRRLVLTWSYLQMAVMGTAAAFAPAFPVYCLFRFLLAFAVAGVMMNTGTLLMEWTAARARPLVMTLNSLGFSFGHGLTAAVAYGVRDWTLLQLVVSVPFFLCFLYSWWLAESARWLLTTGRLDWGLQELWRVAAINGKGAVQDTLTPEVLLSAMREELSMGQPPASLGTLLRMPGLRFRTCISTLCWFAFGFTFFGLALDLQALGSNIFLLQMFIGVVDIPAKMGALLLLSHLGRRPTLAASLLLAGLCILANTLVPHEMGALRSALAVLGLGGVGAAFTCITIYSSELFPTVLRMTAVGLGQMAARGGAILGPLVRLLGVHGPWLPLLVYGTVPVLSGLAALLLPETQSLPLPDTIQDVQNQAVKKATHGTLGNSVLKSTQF
Nature of the assay: 14C-urate uptake inhibition in HEK293 cells expressing WT URAT1. The format is cell-based. As for the experimental part:
(§1) Data are shown as mean ± SD; n = 3 biological replicates. In a, b, uptake buffer: 20 mM HEPES pH 7.4, 125 mM sodium gluconate, 4.8 mM potassium gluconate, 1.2 mM monobasic potassium phosphate, 1.2 mM magnesium sulfate, 1.3 mM calcium gluconate, and 5.6 mM glucose. c Cryo-EM density maps of URAT1 in the apo and substrate-bound states. […] Putative lipid densities are in light cyan. d Cryo-EM density maps of URAT1 in the drug-bound states. […] Putative lipid densities are in light cyan. e Diagram of URAT1 topology. ECD, extracellular domain. f Structure of URAT1 in the apo state. g Slice view of URAT1 in the apo state, showing the central cavity and opening to the intracellular side.
(§2) Human embryonic kidney (HEK) 293 cells (ATCC, CRL-3216) were seeded onto poly(D-lysine)-coated 96-well plates at a density of 0.3 × 10^5 cells per well and cultured at 37 °C until reaching approximately 70%–80% confluence. The cells were transiently transfected with plasmids encoding the URAT1 WT or mutants using Lipofectamine 3000 (Invitrogen, L3000001), following the manufacturer’s protocol. The transfected cells were cultured at 37 °C for 12 h. Following this, 10 mM sodium butyrate was added, and the cells were further incubated at 30 °C for an additional 24 h. […]

The target of a further assay is T2, URAT1EM (Homo sapiens, UniProt Q96S37, A280P/A304R/A323S/A335R/D313K/DEL311-312/DEL60-62/G295A/G309E/G331A/G338L/G65T/I63V/INS307H/L287I/L292P/L321M/L328V/L337V/L341F/L64S/M324V/M330S/M343V/P317I/P333E/Q332K/R291K/R301K/R325K/R342C/S329A/T288I/T289K/T314N/T339D/W294Q/W300R).
T2 construct: human URAT1 (residues 3–553), a (GGGGS)3 linker, and C-terminal DARPinoff7; expressed in transfected cells; host or cells: HEK293 cells (ATCC, CRL-3216), transient transfection
T2 sequence (Q96S37 with tags, fused parts or gaps DEL60-62/I63V/L64S/G65T/A280P/L287I/T288I/T289K/R291K/L292P/W294Q/G295A/W300R/R301K/A304R/INS307H/G309E/DEL311-312/D313K/T314N/P317I/L321M/A323S/M324V/R325K/L328V/S329A/M330S/G331A/Q332K/P333E/A335R/L337V/G338L/T339D/L341F/R342C/M343V): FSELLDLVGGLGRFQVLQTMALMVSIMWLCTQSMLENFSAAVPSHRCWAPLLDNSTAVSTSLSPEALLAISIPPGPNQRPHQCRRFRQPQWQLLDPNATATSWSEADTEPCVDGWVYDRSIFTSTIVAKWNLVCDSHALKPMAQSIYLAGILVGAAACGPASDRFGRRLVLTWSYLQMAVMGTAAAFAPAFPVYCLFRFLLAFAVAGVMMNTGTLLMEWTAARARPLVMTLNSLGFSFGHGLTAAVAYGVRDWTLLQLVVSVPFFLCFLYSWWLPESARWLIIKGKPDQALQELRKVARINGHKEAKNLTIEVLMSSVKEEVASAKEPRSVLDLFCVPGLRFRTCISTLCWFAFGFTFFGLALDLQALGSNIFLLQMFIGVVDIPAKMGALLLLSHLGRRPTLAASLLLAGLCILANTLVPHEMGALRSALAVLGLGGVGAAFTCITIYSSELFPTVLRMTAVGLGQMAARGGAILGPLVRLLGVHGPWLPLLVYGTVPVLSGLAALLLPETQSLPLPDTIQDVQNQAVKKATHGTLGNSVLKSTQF
The assay is described as follows: 14C-urate uptake in HEK293 cells expressing URAT1EM (cryo-EM construct). The format is cell-based. To be noted: read-out: IC50 for URAT1EM. As for the experimental part: as §1, §2

In assay [3] the target is T1, URAT1WT. Nature of the assay: Anion preloading 14C-urate uptake assay, WT URAT1. The format is cell-based. Particulars: Fig. 4e, f, NaCl uptake buffer.
Another assay deals with T3, URAT1 Q473E (Homo sapiens, UniProt Q96S37, Q473E).
T3 construct: expressed in transfected cells; host or cells: HEK293 cells (ATCC, CRL-3216), transient transfection
T3 sequence (Q96S37 1-553 Q473E): T1 sequence (Q96S37 1-553) with Q473E
The assay is described as follows: Anion preloading 14C-urate uptake assay, URAT1 Q473E. The format is cell-based. To be noted: Fig. 4e, f; Site 1 mutant.

The next assay deals with T4, URAT1 (Homo sapiens, UniProt Q96S37).
T4 construct: expressed in transfected cells; host or cells: HEK293 cells (ATCC, CRL-3216), transient transfection with Lipofectamine 3000
T4 sequence (Q96S37 1-553): T1 sequence (Q96S37 1-553)
Nature of the assay: Effect of reducing anion gradients on 14C-urate uptake. To be noted: 125 mM sodium phosphate in place of sodium gluconate in uptake buffer, Fig. S12b. The format is cell-based. Here is the method: Human embryonic kidney (HEK) 293 cells (ATCC, CRL-3216) were seeded onto poly(D-lysine)-coated 96-well plates at a density of 0.3 × 10^5 cells per well and cultured at 37 °C until reaching approximately 70%–80% confluence. The cells were transiently transfected with plasmids encoding the URAT1 WT or mutants using Lipofectamine 3000 (Invitrogen, L3000001), following the manufacturer’s protocol. The transfected cells were cultured at 37 °C for 12 h. Following this, 10 mM sodium butyrate was added, and the cells were further incubated at 30 °C for an additional 24 h. The medium was aspirated, and the cells were rinsed once with assay buffer (20 mM HEPES pH 7.4, 125 mM sodium gluconate, 4.8 mM potassium gluconate, 1.2 mM monobasic potassium phosphate, 1.2 mM magnesium sulfate, 1.3 mM calcium gluconate, and 5.6 mM glucose) and then incubated with 400 µM urate consisted of 80 µM ^14C-radiolabeled (50–60 mCi/mmol, 0.5 mCi/mL, American Radiolabeled Chemicals, Inc.) and 320 µM non-radiolabeled in assay buffer at 37 °C for 20 min. In some experiments, 125 mM sodium gluconate was replaced by sodium chloride, sulfate, or phosphate. […] The cells were then lysed in 0.1 M NaOH, and the lysed samples were added to scintillation liquid to measure radioactivity using a PerkinElmer Microbeta2 counter. […]

On to “human URAT1 tagged with MBP and DARPin, with part of the intracellular loop (residues 280-343) replaced by OAT4 residues 277-339 (from UniProt Q96S37 1-279; Q9NSA0 277-339; Q96S37 344-553)”, for which the stoichiometry N in assay [1] stood at 2. As for `CC(C)(Sc1ccncc1-c1ccc(C#N)c2ccccc12)C(=O)O` [verinurad], the IC50 stood at 53 nM against URAT1WT [2] and 63 nM at URAT1EM. In the case of `O=C(O)c1cnccn1` [Pyrazinoate, pyrazinoate], the “Potentiation in urate uptake by anion preloading (fold change), WT” value at URAT1WT [3] was found to be 3.5 fold. Besides, the “Potentiation in urate uptake by anion preloading (fold change), Q473E” value on URAT1 Q473E came out at 1.2 fold. For phosphate, the “Impact on URAT1 function (14C-urate uptake)” value on URAT1 is “minimal impact”.
